The text below walks through data of patent US10149472B2, “Chitin oligomers for use in promoting non-leguminous plant growth and development” (Wisconsin Alumni Research Foundation, priority 2015, dated 2018).

The test system of assay [1] is Rice. The assay is described as follows: Seed treatment of rice in vitro (plates). The format is in vivo. To be noted: seed coating 10^−6 M; 33 days; vs ethanol control; FIG. 10. As for the experimental part:
Rice seeds were sterilized using 2% bleach. The sterilized seeds were then divided among 3 treatment groups of 10 seeds each into 15 ml falcon tubes. To the control tube, 0.5% ethanol in water was added. To the CO4 tube, 100 μl of 10^−6 M CO4 solution was added. To the CO8 tube, 100 μl of 10^−6 M CO8 solution was added. Each tube was then shaken to coat the seeds. The coated seeds were then placed on sterile Petri dishes in a hood and were left to dry overnight in the hood. The seeds were then germinated on damp germination paper in sterile Petri dishes for 5 days. The resulting seedlings were transferred to Fahräeus medium plates containing damp germination paper, and the plates were wrapped in Parafilm®. The roots part of the plate was covered with aluminum foil. The plants were grown at room temperature under continuous light for 33 days. The length of the shoot and root systems was measured for all plants.

Assay [2] relates to rice trichoblasts (root hair cells). The assay is described as follows: Calcium spiking (YC3.6 imaging) in rice trichoblasts (root hair cells). Particulars: 10^−5 M, FIG. 5, FIG. 6. The format is cell-based, Oryza sativa cv Nipponbare. As for the experimental part:
(§1) Mycorrhizal induced calcium responses were measured as described previously (14). Transgenic Oryza sativa Nipponbare lines carrying Yellow Cameleon 3.6 (YC3.6) FRET-based calcium sensor was used to detect calcium spiking. YC3.6 was imaged on a Nikon Eclipse Ti inverted microscope (Nikon, Japan) equipped with an OptoLED Illuminator (model OptoLED, Cairn Research Ltd, UK). YC3.6 was excited at a wavelength of 455 nm using a royal blue LED and was captured with a charge-coupled device (CCD) camera (model RETIGA-SRV, Qimaging, Canada). Emitted fluorescence was separated by an image splitter with a dichroic mirror (model Optosplit II, Cairn Research Ltd, UK) and then passed through a fluorescence filter set. Images were collected every 5 seconds with 1-second exposure and analyzed using MetaFluor (Molecular Devices, Sunnyvale, Calif., USA).
Both LCOs and COs are Required to Induce Calcium Spiking in Trichoblasts. Rhizobia colonize legumes by root hair cells (trichoblasts), whereas AM fungi colonize roots via non-root hair epidermal cells (atrichoblasts). Thus, these different root epidermal cell types may respond differently to COs and LCOs. To test this, we directly compared trichoblast and atrichoblast responses using high concentrations of CO4 in rice. Calcium oscillations observed in rice following treatments of CO4 were restricted to atrichoblasts, with no responses in trichoblasts even with CO4 treatments of 10^−5 M (FIG. 5). This preferential nature of rice atrichoblasts to respond to the AM signals is consistent with a preference for AM fungi to colonize the root via atrichoblasts (26). It is possible that either AM fungi produce signalling molecules other than S-LCO, NS-LCO and CO4 that induce calcium oscillations in rice trichoblasts, or that the mix of signalling molecules is important. To test this, we assessed induction of calcium oscillations by an equimolar mix of 10^−5 M S-LCO, NS-LCO, and CO4.

The subject of assay [3] is rice atrichoblasts on lateral roots. Kind of assay: Calcium spiking (YC3.6 imaging) in rice atrichoblasts on lateral roots. The assay is classed as cell-based, Oryza sativa cv Nipponbare. To be noted: for calcium oscillations: FIG. 1; for calcium oscillations, CO4 compared with CO8: 10^−8M and 10^−5 M, FIG. 2. The method, then: as §1
For Bayesian Spectrum Analysis we computed the most probable periods in the time series following published procedures (15). Ten traces per treatment were analyzed. The joint distributions over the period were used to characterize each group. The plots show binned data to summarize the key periods. These ten traces per treatment were also analyzed for interspike intervals. The point of maximum height for each spike was computed after detrending of the time series using a moving average algorithm. The distances between these maxima gave rise to an interspike distribution. We used the non-parametric Mann-Whitney U-test, also known as the Mann-Whitney-Wilcoxon test (16, 17) to test for significant differences between the distributions.
Three traces per treatment, with approximately 80 spikes altogether, were analyzed for calcium spike characteristics. […] The traces were detrended using a moving average algorithm (18). We then characterized the spikes by the time required for each upward and downward phase. This was computed by the number of data points it took from the maximum spike height to the baseline fluctuation of the trace. The plots show the mean value of the upward and downward phases for each treatment, and the associated standard deviations are indicated by the error bars.
Calcium responses were assessed using a stably transformed line of Oryza sativa cv Nipponbare carrying YC3.6. […] To test an array of different LCO structures, we analyzed calcium spiking in response to Nod factor isolations from the broad host range rhizobial species, Rhizobium sp. NGR234, as well as Rhizobium tropici, in addition to the Myc-LCOs.

Assay [4] has as its system Rice. Kind of assay: Foliar treatment of rice. The assay is classed as in vivo. To be noted: foliar 10^−6 M with 0.05% Silwet L-77; for shoot length: FIG. 12A. As for the experimental part:
Rice seeds were surface sterilized using 2% bleach. Seeds were then germinated on damp germination paper in sterile Petri dishes for 5 days. The seedlings were then transferred to Fahraeus medium plates containing damp germination paper. The plates were wrapped in Parafilm®, and the roots part of the plate covered with aluminum foil.
The plants were grown at room temperature under continuous light for 21 days. The plants were then transferred to moistened SUNGRO® soil pots (8×8×10 cm) and grown for 3 days under greenhouse condition. The plants were hydrated by pouring water into the tray underneath the pots.
The soil surface was then covered with plastic wrap to prevent any liquid droplets from contacting the soil. Using painting brushes, the front, and back of the plant leaves were treated with 3 ml of chitin derived compounds (CO4 and CO8) at 10^−6 M or a control (0.5% ethanol), each including 0.05% of Silwet L-77 (surfactant). Eleven plants were treated with each solution. The plants were subsequently grown for 14 days, and the shoot length was measured. Once a week, half-strength Hoagland solution was added into the trays underneath the pots. The plants were grown for another 4 days, and the lengths of the shoot and root systems were measured.

The test system of assay [5] is pea (the legume Pisum sativum). The assay is described as follows: Seed treatment of pea in pots. The assay is classed as in vivo. To be noted: seed coating 125 μl of 10^−6 M, 2 weeks after planting, * significant at P < 0.05. As for the experimental part:
Five grams of pea seeds (the legume Pisum sativum) were added to three separate 50 ml tubes. A water solution containing 0.5% ethanol was added to the control tube, 125 μl of 10^−6M CO4 solution was added to the CO4 tube, and 125 μl of 10^−6 M CO8 solution was added to the CO8 tube. Each tube was then shaken to coat the seeds. Seeds were potted immediately following treatment into moistened SUNGRO® potting mix in 4×6×6 cm pots. Plants were watered by pouring water into the tray containing the pots up to about ¾ inch high. After sowing the seeds, the pots were randomly distributed (16 pots per treatment) throughout the tray and placed underneath continuous light at room temperature for 1 week. Liquid Fahräeus medium (plant fertilizer solution; see above) was applied every 2 days or when necessary. After a week, the pots were placed underneath 10 h light and 14 h dark cycle at room temperature for 1 week. After 1 week underneath 10 h light and 14 h dark cycle (2 weeks after planting), the plants were carefully removed from the pots, and as much soil as possible was shaken off. The remaining soil was removed by submerging the root system into a beaker of water. The number of primary roots (PR), lateral roots (LR), root system length (RSL) and dry weight (DW) were then measured for all plants.

`CC(=O)N[C@H]1[C@H](O[C@H]2[C@H](O)[C@@H](NC(C)=O)C(O)O[C@@H]2CO)O[C@H](CO)[C@@H](O[C@@H]2O[C@H](CO)[C@@H](O[C@@H]3O[C@H](CO)[C@@H](O)[C@H](O)[C@H]3NC(C)=O)[C@H](O)[C@H]2NC(C)=O)[C@@H]1O` (stereo partly drawn) [CO4, tetra-N-acetylchitotetraose]: the root system length entry is reported as “significantly increased” in the assay with Rice [1] and “significantly promoted” with Rice [4] (day 18 after treatment, FIG. 12B). Moreover, the shoot length entry is “significantly increased” with Rice [1], “significantly increased” in the assay with Rice [4] (day 14 after treatment) and “significance was even higher” in the assay on Rice [4] (day 18 after treatment). Further, the “calcium spiking in trichoblasts” value in assay [2] is listed as “no responses”. Besides, the calcium oscillations entry in assay [3] (10^−5M, rice large lateral roots, epidermal cells (atrichoblasts)) is “strong calcium oscillations”; in assay [3] (10^−8M, rice epidermal cells, robustness and number of responsive cells reduced), “still showed calcium oscillations”. Moreover, the “calcium oscillations, CO4 compared with CO8” value in assay [3] is “respond equally well”.
As for `CC(=O)N[C@H]1[C@H](O[C@H]2[C@H](O)[C@@H](NC(C)=O)[C@H](O[C@H]3[C@H](O)[C@@H](NC(C)=O)[C@H](O[C@H]4[C@H](O)[C@@H](NC(C)=O)C(O)O[C@@H]4CO)O[C@@H]3CO)O[C@@H]2CO)O[C@H](CO)[C@@H](O[C@@H]2O[C@H](CO)[C@@H](O[C@@H]3O[C@H](CO)[C@@H](O[C@@H]4O[C@H](CO)[C@@H](O[C@@H]5O[C@H](CO)[C@@H](O)[C@H](O)[C@H]5NC(C)=O)[C@H](O)[C@H]4NC(C)=O)[C@H](O)[C@H]3NC(C)=O)[C@H](O)[C@H]2NC(C)=O)[C@@H]1O` (stereo partly drawn) [CO8, octa-N-acetyl-chitooctaose], in assay [5], the “Average Lateral Roots” value is reported as “significantly decreased” and the “Average Primary Roots” value was “significantly decreased”. For the same compound, in assay [3], the “calcium oscillations, CO4 compared with CO8” value was “respond equally well”.
